Assay results from patent US20190239509A1, “METHOD OF CONTROLLING PLANTS” (SYNGENTA PARTICIPATIONS AG, priority 2016, published 2019).

Experiments:
Format in all cases: in vivo
[1] = test system: Amaranthus viridis (AMAVI); test: B2 drilled field trial Brazil, post-emergence, AMAVI; conditions: 100=total damage, 0=no damage; for AMAVI 7DAA Observed: 7 days after application; for AMAVI 30 DAA Observed: 30 days after application
Protocol: (§1) Seeds of a variety of test species were used in drilled field trials to look at the control of important weed species present in corn crops as well as the effect on soybean (a volunteer crop in corn). Trials were carried out in Brazil in the summer season.
(§2) Plot size was 10-12 m^2, and two replicates were carried out per treatment. Plants were treated post-emergence at the 4 leaf stage. Fungicides and insecticides were used as necessary for plant health. The test was evaluated at 7 and 30 days after application (Amaranthus viridis (AMAVI), Bidens pilosa (BIDPI), Euphorbia heterophylla (EPPHL)) and 9 and 37 days after application (Brachiaria plantaginea (BRAPL) and soybean (Glycine max GLXMA) with 100=total damage to plant and 0=no damage to plant.
(§3) Expected results were calculated using the Colby Formula.

Bidens pilosa (BIDPI) [2] = test: B2 drilled field trial Brazil, post-emergence, BIDPI; conditions: 100=total damage, 0=no damage; for BIDPI 7DAA Observed: 7 days after application; for BIDPI 30 DAA Observed: 30 days after application
Protocol: as §1, §2, §3

[3] = test system: Euphorbia heterophylla (EPPHL); test: B2 drilled field trial Brazil, post-emergence, EPPHL; conditions: 100=total damage, 0=no damage; for EPPHL 7DAA Observed: 7 days after application; for EPPHL 30 DAA Observed: 30 days after application
Protocol: as §1, §2, §3

[4] = test system: Brachiaria plantaginea (BRAPL); test: B2 drilled field trial Brazil, post-emergence, BRAPL; conditions: 100=total damage, 0=no damage; for BRAPL 9DAA Observed: 9 days after application; for BRAPL 37 DAA Observed: 37 days after application
Protocol: as §1, §2, §3

[5] = test system: soybean (Glycine max GLXMA); test: B2 drilled field trial Brazil, post-emergence, soybean; conditions: 100=total damage, 0=no damage; for GLXMA 9DAA Observed: 9 days after application; for GLXMA 37 DAA Observed: 37 days after application
Protocol: as §1, §2, §3

[6] = test system: Amaranthus retroflexus (AMARE); test: B3 drilled field trial Brazil, post-emergence, AMARE; conditions: 28 days after application, 100=total damage, 0=no damage
Protocol: (§4) Seeds of a variety of test species were used in drilled field trials to look at the control of important weed species present in corn crops as well as the effect on soybean (a volunteer crop in corn). Trials were carried out in Brazil in the summer season and the second season.
(§5) Plot size was 10-15 m^2, and two replicates were carried out per treatment. Plants were treated post-emergence between the 2 and 4 leaf stage. Species tested were Amaranthus retroflexus (AMARE), Ipomoea grandifolia (IAQGR), Digitaria horizontalis (DIGHO), Bidens pilosa (BIDPI), Eleusine indica (ELEIN), Brachiaria decumbens (BRADC), Centrus echinatus (CCHEC), Euphorbia heterophylla (EPPHL), Brachiaria plantaginea (BRAPL) and Glycine max (GLXMA; soybean). Fungicides and insecticides were used as necessary for plant health. The test was evaluated at 28 days after application with 100=total damage to plant and 0=no damage to plant.
as §3

[7] = test system: Ipomoea grandifolia (IAQGR); test: B3 drilled field trial Brazil, post-emergence, IAQGR; conditions: 28 days after application
Protocol: as §4, §5, §3

[8] = test system: Digitaria horizontalis (DIGHO); test: B3 drilled field trial Brazil, post-emergence, DIGHO; conditions: 28 days after application
Protocol: as §4, §5, §3

Bidens pilosa (BIDPI) [9] = test: B3 drilled field trial Brazil, post-emergence, BIDPI; conditions: 28 days after application
Protocol: as §4, §5, §3

Eleusine indica (ELEIN) = test: B3 drilled field trial Brazil, post-emergence, ELEIN; conditions: 28 days after application
Protocol: as §4, §5, §3

[10] = test system: Brachiaria decumbens (BRADC); test: B3 drilled field trial Brazil, post-emergence, BRADC; conditions: 28 days after application
Protocol: as §4, §5, §3

[11] = test system: Centrus echinatus (CCHEC); test: B3 drilled field trial Brazil, post-emergence, CCHEC; conditions: 28 days after application
Protocol: as §4, §5, §3

[12] = test system: Euphorbia heterophylla (EPPHL); test: B3 drilled field trial Brazil, post-emergence, EPPHL; conditions: Summer season, 28 days after application
Protocol: as §4, §5, §3

[13] = test system: Brachiaria plantaginea (BRAPL); test: B3 drilled field trial Brazil, post-emergence, BRAPL; conditions: Summer season, 28 days after application
Protocol: as §4, §5, §3

[14] = test system: Glycine max (GLXMA; soybean); test: B3 drilled field trial Brazil, post-emergence, soybean; conditions: 28 days after application
Protocol: as §4, §5, §3

## CS(=O)(=O)c1ccc(C(=O)C2C(=O)CCCC2=O)c([N+](=O)[O-])c1 [Mesotrione, reference compound]
[1]; 75 g ai/ha
  AMAVI 7DAA Observed: 25
  AMAVI 30 DAA Observed: 30
[1]; 125 g ai/ha
  AMAVI 7DAA Observed: 65
  AMAVI 30 DAA Observed: 50
Bidens pilosa (BIDPI) [2]; 75 g ai/ha
  BIDPI 7DAA Observed: 28
  BIDPI 30 DAA Observed: 28
Bidens pilosa (BIDPI) [2]; 125 g ai/ha
  BIDPI 7DAA Observed: 40
  BIDPI 30 DAA Observed: 40
[3]; 75 g ai/ha
  EPPHL 7DAA Observed: 30
  EPPHL 30 DAA Observed: 20
[3]; 125 g ai/ha
  EPPHL 7DAA Observed: 40
  EPPHL 30 DAA Observed: 35
[4]; 75 g ai/ha
  BRAPL 9DAA Observed: 53
  BRAPL 37 DAA Observed: 7
[4]; 125 g ai/ha
  BRAPL 9DAA Observed: 65
  BRAPL 37 DAA Observed: 0
[5]; 75 g ai/ha
  GLXMA 9DAA Observed: 45
  GLXMA 37 DAA Observed: 65
[5]; 125 g ai/ha
  GLXMA 9DAA Observed: 55
  GLXMA 37 DAA Observed: 88
[6]; 75 g ai/ha
  AMARE Second season Observed: 40
  AMARE Summer season Observed: 73
[6]; 125 g ai/ha
  AMARE Second season Observed: 54
  AMARE Summer season Observed: 85
[7]; Second season, 75 g ai/ha
  Observed damage (100=total damage to plant, 0=no damage): 79
[7]; Second season, 125 g ai/ha
  Observed damage (100=total damage to plant, 0=no damage): 87
[7]; Summer season, 75 g ai/ha
  Observed damage (100=total damage to plant, 0=no damage): 63
[7]; Summer season, 125 g ai/ha
  Observed damage (100=total damage to plant, 0=no damage): 96
[8]; Second season, 75 g ai/ha
  Observed damage (100=total damage to plant, 0=no damage): 40
[8]; Second season, 125 g ai/ha
  Observed damage (100=total damage to plant, 0=no damage): 70
[8]; Summer season, 75 g ai/ha
  Observed damage (100=total damage to plant, 0=no damage): 50
[8]; Summer season, 125 g ai/ha
  Observed damage (100=total damage to plant, 0=no damage): 72
Bidens pilosa (BIDPI) [9]; Second season, 75 g ai/ha
  Observed damage (100=total damage to plant, 0=no damage): 68
Bidens pilosa (BIDPI) [9]; Second season, 125 g ai/ha
  Observed damage (100=total damage to plant, 0=no damage): 70
Bidens pilosa (BIDPI) [9]; Summer season, 75 g ai/ha
  Observed damage (100=total damage to plant, 0=no damage): 53
Bidens pilosa (BIDPI) [9]; Summer season, 125 g ai/ha
  Observed damage (100=total damage to plant, 0=no damage): 74
Eleusine indica (ELEIN); Second season, 75 g ai/ha
  Observed damage (100=total damage to plant, 0=no damage): 20
Eleusine indica (ELEIN); Second season, 125 g ai/ha
  Observed damage (100=total damage to plant, 0=no damage): 50
Eleusine indica (ELEIN); Summer season, 75 g ai/ha
  Observed damage (100=total damage to plant, 0=no damage): 53
Eleusine indica (ELEIN); Summer season, 125 g ai/ha
  Observed damage (100=total damage to plant, 0=no damage): 58
[10]; Second season, 75 g ai/ha
  Observed damage (100=total damage to plant, 0=no damage): 10
[10]; Second season, 125 g ai/ha
  Observed damage (100=total damage to plant, 0=no damage): 13
[10]; Summer season, 75 g ai/ha
  Observed damage (100=total damage to plant, 0=no damage): 48
[10]; Summer season, 125 g ai/ha
  Observed damage (100=total damage to plant, 0=no damage): 50
[11]; Second season, 75 g ai/ha
  Observed damage (100=total damage to plant, 0=no damage): 0
[11]; Second season, 125 g ai/ha
  Observed damage (100=total damage to plant, 0=no damage): 0
[11]; Summer season, 75 g ai/ha
  Observed damage (100=total damage to plant, 0=no damage): 0
[11]; Summer season, 125 g ai/ha
  Observed damage (100=total damage to plant, 0=no damage): 0
[12]; 75 g ai/ha
  Observed damage (100=total damage to plant, 0=no damage): 40
[12]; 125 g ai/ha
  Observed damage (100=total damage to plant, 0=no damage): 58
[13]; 75 g ai/ha
  Observed damage (100=total damage to plant, 0=no damage): 15
[13]; 125 g ai/ha
  Observed damage (100=total damage to plant, 0=no damage): 28
[14]; Second season, 75 g ai/ha
  Observed damage (100=total damage to plant, 0=no damage): 83
[14]; Second season, 125 g ai/ha
  Observed damage (100=total damage to plant, 0=no damage): 89
[14]; Summer season, 75 g ai/ha
  Observed damage (100=total damage to plant, 0=no damage): 69
[14]; Summer season, 125 g ai/ha
  Observed damage (100=total damage to plant, 0=no damage): 92
